Test results: patent US12364702B2, “Highly active sting protein agonist compound” (ADLAI NORTYE BIOPHARMA CO., LTD., priority 2018, dated 2025)

Experiments:
Type in all cases: cell-based
[1] = target: T1, STING WT variant (Homo sapiens, UniProt Q86WV6); assay: SEAP reporter assay in HEK-Blue ISG KO-STING cells transfected with STING WT variant (Method 1); details: compound 7.8 uM, 24 h, SEAP signal vs 0.5% DMSO
T1 construct: host or cells: HEK-Blue ISG KO-STING cells (Invivogen, hkb-kostg)
How it was run: (§1)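 HEK-Blue ISG KO-STING cells transfected with 1 ng STING variant plasmid for 24 h at 37 °C, then compound-treated 24 h (0.5% DMSO final). SEAP chemiluminescence read in supernatant; viability by CellTiter-Glo. Values are compound signal relative to 0.5% DMSO.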

[2] = target: T2, STING HAQ variant (Homo sapiens, UniProt Q86WV6, G230A/R293Q/R71H); assay: SEAP reporter assay in HEK-Blue ISG KO-STING cells transfected with STING HAQ variant (Method 1); details: compound 7.8 uM, 24 h, SEAP signal vs 0.5% DMSO
T2 construct: host or cells: HEK-Blue ISG KO-STING cells (Invivogen, hkb-kostg)
T2 sequence (Q86WV6 whole entry R71H/G230A/R293Q): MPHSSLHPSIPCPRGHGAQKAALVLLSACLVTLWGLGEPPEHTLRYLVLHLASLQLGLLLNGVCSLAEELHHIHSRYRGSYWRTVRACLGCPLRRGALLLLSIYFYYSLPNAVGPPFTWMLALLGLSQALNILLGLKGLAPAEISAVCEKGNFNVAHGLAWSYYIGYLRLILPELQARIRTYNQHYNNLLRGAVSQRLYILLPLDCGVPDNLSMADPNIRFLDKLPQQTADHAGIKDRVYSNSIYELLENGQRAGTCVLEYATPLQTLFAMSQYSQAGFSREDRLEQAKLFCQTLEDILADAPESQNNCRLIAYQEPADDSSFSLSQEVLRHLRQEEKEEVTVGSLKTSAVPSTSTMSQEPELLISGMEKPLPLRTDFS
How it was run: as §1

[3] = target: T1, STING WT variant; assay: SEAP reporter assay in HEK-Blue ISG KO-STING cells transfected with STING WT variant (Method 2); parameters: key: ratio of compound SEAP signal to 0.5% DMSO; details: 1 ng STING vector (WT variant), compound 2.5 uM, 24 h, SEAP signal vs 0.5% DMSO
Excerpt: (§2) Activation of STING can be determined using a SEAP reporter assay in HEK-Blue™ ISG KO-STING cells (Invivogen, cat #hkb-kostg) transfected with plasmids expressing STING variants (WT & HAQ) (referred to WO2017/175147A1). STING variants (WT & HAQ) vector were constructed based on STING-232H vector (Origene, RC208418). GFP vector (VT2069) was bought from Youbio. The detailed protocol as follows: HEK-Blue™ ISG KO-STING cells were harvest and seeding into 96 well plate and the final cell number was 0.8×10^5 cells/well. Transfections were prepared using Lipofectamine 2000 (Invitrogen, Cat #11668-027) following the manufacturer's instructions (Lipo2000/DNA=1/10), 20 ul of transfection suspension containing 1 ng (WT variant) or 0.0625 ng (HAQ variant) STING vector was added to cell culture plate and incubated at 37° C., 5% CO2 for 24 hours. After 24 hours incubation, compounds were added at proper concentration, the final DMSO concentration was 0.5%. After 24 h incubation, the supernatant was collected to detect SEAP signal using Great EscAPe SEAP chemiluminescence KIT (Clontech, cat #631738) and cells were collected to detect cell viability using CellTiter-Glo Luminescent Cell Viability Assay (Promega, cat #G7573) following the manufacturer's instructions. The data were described by the ratio of the stimulating signal of compounds to 0.5% DMSO.

[4] = target: T2, STING HAQ variant; assay: SEAP reporter assay in HEK-Blue ISG KO-STING cells transfected with STING HAQ variant (Method 2); parameters: key: ratio of compound SEAP signal to 0.5% DMSO; details: 0.0625 ng STING vector (HAQ variant), compound 5 uM, 24 h, SEAP signal vs 0.5% DMSO
Excerpt: as §2

[5] = target: STING (Homo sapiens, UniProt Q86WV6); assay: IFN-β secretion from THP1 by STING activation (hIFNβ ELISA); details: THP1 cells; 24 h incubation; IFN-β in supernatant; top dose set according to solubility; read-out: hIFNβ ELISA (EC50)
Chain of STING (Q86WV6 whole entry): as the sequence (Q86WV6 whole entry R71H/G230A/R293Q) above, with H71R, A230G, Q293R counted along it
How it was run: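 THP1 cells (2×10^6 cells/ml) exposed 24 h at 37° C, 5% CO2 to 8-point, 3-fold compound dilutions, 0.2% DMSO final, top dose set by solubility. Secreted IFN-β in supernatant measured by human IFNβ ELISA; EC50 from curve fitting.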

`CCn1nc(C)cc1C(=O)Nc1nc2cc(C(N)=O)cc(OCCCOC)c2n1CCC[C@H]1COc2cc(C(N)=O)cc3nc(NC(=O)c4cc(C)nn4CC)n1c23` [Example 1, (S)-3-(3-(5-Carbamoyl-2-(1-ethyl-3-methyl-1H-pyrazole-5-carboxamido)-7-(3-methoxypropoxy)-1H-benzo[d]imidazol-1-yl)propyl)-2-(1-ethyl-3-methyl-1H-pyrazole-5-carboxamido)-3,4-dihydro-5-oxa-1,2a-diazaacenaphthylene-7-carboxamide] was tested. Which “Fold change related to DMSO control WT” value [1] did it give?
Its value is 2.29.

What about the “Fold change related to DMSO control HAQ” value [2] of the same molecule?
Its value is 36.93.

What about the “Fold change related to DMSO control WT” value [3] of the same molecule?
Its value is 13.65.

And the “Fold change related to DMSO control HAQ” value [4]?
Its value is 24.13.

What about the EC50 [5] of the same molecule?
Its EC50 is 2100 nM.
